Source: EPA's ToxValDB 9.5 (doi:10.2903/j.efsa.2014.3764)

How the values were obtained:
Canidae = settings: oral, Dog Other, clinical chemistry
Colinus virginianus = settings: acute; oral; mortality
Tagia sp. = settings: acute; duration: 14 days; mortality
Apis mellifera = settings: acute, duration: 48 hours, mortality
Oncorhynchus mykiss = settings: chronic/long-term; duration: 87 days; mortality
Cyprinus carpio = settings: acute; duration: 96 hours; mortality
Daphnia magna = settings: chronic/long-term; duration: 21 days; mortality
Anas platyrhynchos = settings: oral, feed
Aphidius rhopalosiphi = assay: LR50; higher = less toxic; settings: acute; duration: 48 hours; mortality

CCS(=O)(=O)c1nc2ccccn2c1S(=O)(=O)NC(=O)Nc1nc(OC)cc(OC)n1 [Sulfosulfuron]
LD50 (Rattus norvegicus; acute, oral, mortality): > 5000 mg/kg-day | NOAEL (Rattus norvegicus; chronic, duration: 2 years, histopathology: nonneoplastic): 24.4 mg/kg-day | NOAEL (Rattus norvegicus; reproduction developmental, duration: 22 months, oral, diet, body weight): 312 mg/kg-day | NOAEL (Canidae; chronic, duration: 1 years): 100 mg/kg-day | NOAEL (Canidae; subchronic, duration: 90 days): 100 mg/kg-day | LD50 (Colinus virginianus): > 2250 mg/kg-day | LC50 (Tagia sp.): > 848 mg/kg | LD50 (Apis mellifera; dermal): > 25 µg/piece | LD50 (Apis mellifera; oral, unspecified): > 30 µg/piece | NOEC (Oncorhynchus mykiss): 100 mg/L | LC50 (Cyprinus carpio): > 91 µg/mL | NOEC (Daphnia magna): 102 mg/L | NOEL (Anas platyrhynchos; reproductive): 33.7 mg/kg-day | LD50 (Anas platyrhynchos; short-term, mortality): > 1350 mg/kg-day | LR50 (Aphidius rhopalosiphi): > 29.7 g/ha
